This is an account of results in patent publication US9771370B2, “Compounds for the inhibition of indoleamine-2,3-dioxygenase” (Merck Patent GmbH, priority 2014, dated 2017).

Some results are limits rather than exact numbers.

For the assay, the target named is Recombinant human IDO (Homo sapiens, UniProt P14902). Kind of assay: Bridge-IT tryptophan fluorescence assay of human IDO-1 inhibition. The following applies: recombinant human IDO 7.5 nM, L-tryptophan. The class given is biochemical. Summed up: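 One variant ran L-Trp at 100 μM for 90 min at 37 °C. The other pre-incubated compound for 30 min at 25 °C, then ran 50 μM L-Trp for 60 min at 25 °C.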
Sequence of Recombinant human IDO (P14902 whole entry): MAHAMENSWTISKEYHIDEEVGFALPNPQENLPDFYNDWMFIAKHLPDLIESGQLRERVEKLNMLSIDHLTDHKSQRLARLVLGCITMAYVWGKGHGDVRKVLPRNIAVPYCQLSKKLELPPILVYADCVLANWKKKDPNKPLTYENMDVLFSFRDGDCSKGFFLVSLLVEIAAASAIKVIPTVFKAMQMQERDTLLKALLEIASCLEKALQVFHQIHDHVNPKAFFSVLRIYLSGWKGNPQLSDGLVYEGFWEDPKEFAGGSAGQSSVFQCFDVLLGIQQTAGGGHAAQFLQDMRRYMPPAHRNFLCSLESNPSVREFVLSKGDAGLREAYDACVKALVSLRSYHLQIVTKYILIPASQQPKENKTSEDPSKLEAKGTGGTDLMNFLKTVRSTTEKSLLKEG
As to `O=C(O)C1CCC(F)(CCC2c3c(F)cccc3-c3cncn32)CC1` (single isomer, unassigned) [Compound 80b, 4-fluoro-4-(2-[6-fluoro-5H-imidazo[4,3-a]isoindol-5-yl]ethyl)cyclohexane-1-carboxylic acid], the IC50 lay in the range of 100 to 1000 nM.
Consider `NC(=O)C1CCC(F)(CCC2c3c(F)cccc3-c3cncn32)CC1` (single isomer, unassigned) [Compound 81a, 4-fluoro-4-[2-[6-fluoro-5H-imidazo[4,3-a]isoindol-5-yl]ethyl]cyclohexane-1-carboxamide], for which the IC50 is 100 to 1000 nM.
To `NC(=O)C1CCC(F)(CCC2c3c(F)cccc3-c3cncn32)CC1` (single isomer, unassigned) [Compound 81b, 4-fluoro-4-[2-[6-fluoro-5H-imidazo[4,3-a]isoindol-5-yl]ethyl]cyclohexane-1-carboxamide] belongs greater than 1000 nM; to `NC(=O)C1CCC(F)(CCC2c3c(F)cccc3-c3cncn32)CC1` (single isomer, unassigned) [Compound 81c, 4-fluoro-4-[2-[6-fluoro-5H-imidazo[4,3-a]isoindol-5-yl]ethyl]cyclohexane-1-carboxamide], less than 100 nM.
`NC(=O)C1CCC(F)(CCC2c3c(F)cccc3-c3cncn32)CC1` (single isomer, unassigned) [Compound 81d, 4-fluoro-4-[2-[6-fluoro-5H-imidazo[4,3-a]isoindol-5-yl]ethyl]cyclohexane-1-carboxamide]: the IC50 was less than 100 nM.
As for `O=C(O)C1CCC(F)(CCC2c3ccccc3-c3cncn32)CC1` (single isomer, unassigned) [Compound 82a, 4-fluoro-4-(2-[5H-imidazo[4,3-a]isoindol-5-yl]ethyl)cyclohexane-1-carboxylic acid], the figure is less than 100 nM.
On to `OC(CC1c2c(Cl)cccc2-c2cncn21)C1(F)CCCCC1` (single isomer, unassigned) [Compound 83a, 2-[6-chloro-5H-imidazo[4,3-a]isoindol-5-yl]-1-(1-fluorocyclohexyl)ethan-1-ol], for which the IC50 is greater than 1000 nM.
Turning to `OC(CC1c2c(Cl)cccc2-c2cncn21)C1(F)CCCCC1` (single isomer, unassigned) [Compound 83b, 2-[6-chloro-5H-imidazo[4,3-a]isoindol-5-yl]-1-(1-fluorocyclohexyl)ethan-1-ol], the IC50 lay in the range of 100 to 1000 nM.
With `OC(CC1c2c(Cl)cccc2-c2cncn21)C1(F)CCCCC1` (single isomer, unassigned) [Compound 83c, 2-[6-chloro-5H-imidazo[4,3-a]isoindol-5-yl]-1-(1-fluorocyclohexyl)ethan-1-ol], the IC50 was greater than 1000 nM.
As to `OC(CC1c2c(Cl)cccc2-c2cncn21)C1(F)CCCCC1` (single isomer, unassigned) [Compound 83d, 2-[6-chloro-5H-imidazo[4,3-a]isoindol-5-yl]-1-(1-fluorocyclohexyl)ethan-1-ol], the 50% inhibitory concentration (IC50) was less than 100 nM.
In the case of `OCC1CCC(F)(CCC2c3c(F)cccc3-c3cncn32)CC1` (single isomer, unassigned) [Compound 84a, [4-fluoro-4-[2-[6-fluoro-5H-imidazo[4,3-a]isoindol-5-yl]ethyl]cyclohexyl]methanol], the half-inhibitory concentration (IC50) is greater than 1000 nM.
`OCC1CCC(F)(CCC2c3c(F)cccc3-c3cncn32)CC1` (single isomer, unassigned) [Compound 84b, [4-fluoro-4-[2-[6-fluoro-5H-imidazo[4,3-a]isoindol-5-yl]ethyl]cyclohexyl]methanol]: the half-inhibitory concentration (IC50) is greater than 1000 nM.
Regarding `OCC1CCC(F)(CCC2c3c(F)cccc3-c3cncn32)CC1` (single isomer, unassigned) [Compound 84c, [4-fluoro-4-[2-[6-fluoro-5H-imidazo[4,3-a]isoindol-5-yl]ethyl]cyclohexyl]methanol], the IC50 was less than 100 nM.
With `OCC1CCC(F)(CCC2c3c(F)cccc3-c3cncn32)CC1` (single isomer, unassigned) [Compound 84d, [4-fluoro-4-[2-[6-fluoro-5H-imidazo[4,3-a]isoindol-5-yl]ethyl]cyclohexyl]methanol], the IC50 was less than 100 nM.
As for `OC(CC1c2ncccc2-c2cncn21)C1(F)CCC(F)(F)CC1` (single isomer, unassigned) [Compound 87a, 2-[4,6,9-triazatricyclo[6.4.0.0^[2,6]]dodeca-1(8),2,4,9,11-pentaen-7-yl]-1-(1,4,4-trifluorocyclohexyl)ethan-1-ol], the IC50 was greater than 1000 nM.
As for `OC(CC1c2ncccc2-c2cncn21)C1(F)CCC(F)(F)CC1` (single isomer, unassigned) [Compound 87b, 2-[4,6,9-triazatricyclo[6.4.0.0^[2,6]]dodeca-1(8),2,4,9,11-pentaen-7-yl]-1-(1,4,4-trifluorocyclohexyl)ethan-1-ol], the figure is greater than 1000 nM; as for `OC(CC1c2ncccc2-c2cncn21)C1(F)CCC(F)(F)CC1` (single isomer, unassigned) [Compound 87c, 2-[4,6,9-triazatricyclo[6.4.0.0^[2,6]]dodeca-1(8),2,4,9,11-pentaen-7-yl]-1-(1,4,4-trifluorocyclohexyl)ethan-1-ol], greater than 1000 nM.
Take `OC(CC1c2ncccc2-c2cncn21)C1(F)CCC(F)(F)CC1` (single isomer, unassigned) [Compound 87d, 2-[4,6,9-triazatricyclo[6.4.0.0^[2,6]]dodeca-1(8),2,4,9,11-pentaen-7-yl]-1-(1,4,4-trifluorocyclohexyl)ethan-1-ol]: the IC50 was 100 to 1000 nM.
Consider `CC(C)(C)C(=O)N1CCC(C(O)CC2c3ncccc3-c3cncn32)CC1` (single isomer, unassigned) [Compound 88a, 1-[4-[1-hydroxy-2-[4,6,9-triazatricyclo[6.4.0.0^[2,6]]dodeca-1(8),2,4,9,11-pentaen-7-yl]ethyl]piperidin-1-yl]-2,2-dimethylpropan-1-one], for which the IC50 is greater than 1000 nM.
Turning to `CC(C)(C)C(=O)N1CCC(C(O)CC2c3ncccc3-c3cncn32)CC1` (single isomer, unassigned) [Compound 88b, 1-[4-[1-hydroxy-2-[4,6,9-triazatricyclo[6.4.0.0^[2,6]]dodeca-1(8),2,4,9,11-pentaen-7-yl]ethyl]piperidin-1-yl]-2,2-dimethylpropan-1-one], the half-inhibitory concentration (IC50) is greater than 1000 nM.
As for `CC(C)(C)C(=O)N1CCC(C(O)CC2c3ncccc3-c3cncn32)CC1` (single isomer, unassigned) [Compound 88c, 1-[4-[1-hydroxy-2-[4,6,9-triazatricyclo[6.4.0.0^[2,6]]dodeca-1(8),2,4,9,11-pentaen-7-yl]ethyl]piperidin-1-yl]-2,2-dimethylpropan-1-one], the figure is greater than 1000 nM; as for `CC(C)(C)C(=O)N1CCC(C(O)CC2c3ncccc3-c3cncn32)CC1` (single isomer, unassigned) [Compound 88d, 1-[4-[1-hydroxy-2-[4,6,9-triazatricyclo[6.4.0.0^[2,6]]dodeca-1(8),2,4,9,11-pentaen-7-yl]ethyl]piperidin-1-yl]-2,2-dimethylpropan-1-one], greater than 1000 nM.
With `CC(C)[C@H](N)C(=O)N1CCC(F)(CCC2c3ccccc3-c3cncn32)CC1` (single isomer, unassigned) [Compound 89a], the IC50 was greater than 1000 nM.
To `CC(C)[C@H](N)C(=O)N1CCC(F)(CCC2c3ccccc3-c3cncn32)CC1` (single isomer, unassigned) [Compound 89b] belongs greater than 1000 nM; to `FC1(CCC2c3c(Cl)cccc3-c3cncn32)CCC2(CC1)CC2` (single isomer, unassigned) [Compound 91a, 6-chloro-5-(2-[6-fluorospiro[2.5]octan-6-yl]ethyl)-5H-imidazo[4,3-a]isoindole], greater than 1000 nM.
As to `FC1(CCC2c3c(Cl)cccc3-c3cncn32)CCC2(CC1)CC2` (single isomer, unassigned) [Compound 91b, 6-chloro-5-(2-[6-fluorospiro[2.5]octan-6-yl]ethyl)-5H-imidazo[4,3-a]isoindole], the IC50 is greater than 1000 nM.
As for `OC(CC1c2ncccc2-c2cncn21)C1CCOCC1` (single isomer, unassigned) [Compound 92a, 1-(oxan-4-yl)-2-[4,6,9-triazatricyclo[6.4.0.0^[2,6]]dodeca-1(8),2,4,9,11-pentaen-7-yl]ethan-1-ol], the figure is greater than 1000 nM.
As to `OC(CC1c2ncccc2-c2cncn21)C1CCOCC1` (single isomer, unassigned) [Compound 92b, 1-(oxan-4-yl)-2-[4,6,9-triazatricyclo[6.4.0.0^[2,6]]dodeca-1(8),2,4,9,11-pentaen-7-yl]ethan-1-ol], the IC50 was greater than 1000 nM.
Consider `OC(CC1c2ncccc2-c2cncn21)C1CCOCC1` (single isomer, unassigned) [Compound 92c, 1-(oxan-4-yl)-2-[4,6,9-triazatricyclo[6.4.0.0^[2,6]]dodeca-1(8),2,4,9,11-pentaen-7-yl]ethan-1-ol], for which the concentration for half-maximal inhibition (IC50) is greater than 1000 nM.
To `OC(CC1c2ncccc2-c2cncn21)C1CCOCC1` (single isomer, unassigned) [Compound 92d, 1-(oxan-4-yl)-2-[4,6,9-triazatricyclo[6.4.0.0^[2,6]]dodeca-1(8),2,4,9,11-pentaen-7-yl]ethan-1-ol] belongs greater than 1000 nM.
`FC1(CCC2c3ncccc3-c3cncn32)CCOCC1` (single isomer, unassigned) [Compound 93a, 7-[2-(4-fluorooxan-4-yl)ethyl]-4,6,9-triazatricyclo[6.4.0.0^[2,6]]dodeca-1(8),2,4,9,11-pentaene]: the IC50 was greater than 1000 nM.
For the compound `FC1(CCC2c3ncccc3-c3cncn32)CCOCC1` (single isomer, unassigned) [Compound 93b, 7-[2-(4-fluorooxan-4-yl)ethyl]-4,6,9-triazatricyclo[6.4.0.0^[2,6]]dodeca-1(8),2,4,9,11-pentaene], the half-maximal inhibitory concentration (IC50) is greater than 1000 nM.
Turning to `FC1(CCC2c3ccccc3-c3cncn32)CCOCC1` (single isomer, unassigned) [Compound 94a, 5-[2-(4-fluorooxan-4-yl)ethyl]-5H-imidazo[4,3-a]isoindole], the IC50 is greater than 1000 nM.
As for `FC1(CCC2c3ccccc3-c3cncn32)CCOCC1` (single isomer, unassigned) [Compound 94b, 5-[2-(4-fluorooxan-4-yl)ethyl]-5H-imidazo[4,3-a]isoindole], the figure is less than 100 nM.
